Test results reported in patent publication US20240050576A1, “METHODS AND COMPOUNDS FOR THE TREATMENT OF GENETIC DISEASE” (Design Therapeutics, Inc., priority 2020, published 2024).
Read-outs that look alike come from different tables or passages of the source.

Test system: human FXN
Assay: FXN mRNA expression by qRT-PCR in GM15850 cells after 48 hr compound treatment
Assay type: cell-based
Details: GM15850 cells, 48 hr incubation, hFXN normalized to hGAPDH, read-out: EC50 WT (nM, 48 hr)
Experimental: Cell culture: Cells were cultured in RPMI1640 medium+15% FBS. Cells were maintained at a density between 2e5/mL and 1e6/mL. Cells were centrifuged, resuspended in fresh medium, counted and plated at 150,000 cells per well in 100 uL in a non-coated, flat bottom tissue culture plate.
Compound treatment: 10 mM stock solution of FA GeneTAC was diluted 1:10 in DMSO followed by a 1:100 dilution in growth medium. […] Compound was then diluted at a 1:3 ratio into growth medium containing 0.01% DMSO. 5-point, 3-fold dose response curve was generated. 11 μL of 10× compound was added to wells containing 100 μL cell suspension of GM15850. 11 μL growth medium containing 0.01% DMSO was added to all wells not treated with FA GeneTAC. Cells were allowed to incubate for 48 hrs prior to cell lysis using guanidine isothiocyanate solution.
RNA isolation: Total RNA was isolated and purified in 384-well column filter plates using chaotropic salt.
qRT-PCR: qRT-PCR reactions were assembled using AgPath-ID reagents (Thermo Fisher) using 6 uL mastermix and 4 μL RNA. qRT-PCR TaqMan primer probe sets against human FXN (Assay ID Hs01075496_m1) and human GAPDH (Assay ID Hs00266705_g1) were used to measure the intended targets. qRT-PCR was run on the ThermoFisher QuantStudio 6 PRO instrument using the manufacturer's recommended cycling conditions.
Data analysis: qPCR data was analyzed using Thermo Fisher Design and Analysis software. Data was exported to Excel and hFXN expression was normalized to hGAPDH expression.

Compound | EC50 (Homo sapiens) [nM] | EC50 [nM]
Cc1sc2c(c1C)C(c1ccc(Cl)cc1)=N[C@@H](CC(=O)Nc1ccc(CCCOCCOCCOCCOCCOCCOCCOCCOCCNC(=O)CCNC(=O)c3nc(NC(=O)CCNC(=O)c4cc(NC(=O)c5nc(NC(=O)CCNC(=O)c6cc(NC(=O)c7nccn7C)cn6C)cn5C)cn4C)cn3C)cc1)c1nnc(C)n1-2 [Compound 63] | < 100 | –
CCCNC(=O)CCNC(=O)c1nc(NC(=O)CCNC(=O)c2cc(NC(=O)c3nc(NC(=O)CCNC(=O)c4cc(NC(=O)c5nc(NC(=O)COCCOCCOCCOCCOCCOCCOCCOCCOc6ccc(NC(=O)C[C@@H]7N=C(c8ccc(Cl)cc8)c8c(sc(C)c8C)-n8c(C)nnc87)cc6)cn5C)cn4C)cn3C)cn2C)cn1C [Compound 50] | < 100 | –
CC(=O)N1c2ccc(-c3cnc(C(=O)NCCOCCOCCOCCOCCOCCOCCOCCOCCNC(=O)CCNC(=O)c4nc(NC(=O)CCNC(=O)c5cc(NC(=O)c6nc(NC(=O)CCNC(=O)c7cc(NC(=O)c8nccn8C)cn7C)cn6C)cn5C)cn4C)nc3)cc2N(Cc2ccccc2CO)C[C@@H]1C1CC1 [Compound 48, N-(5-[[2-([2-[(2-[[26-([5-[(2S)-1-acetyl-2-cyclopropyl-4-[[2-(hydroxymethyl)phenyl]methyl]-2,3-dihydroquinoxalin-6-yl]pyrimidin-2-yl]formamido)-3,6,9,12,15,18,21,24-octaoxahexacosan-1-yl]carbamoyl]ethyl)carbamoyl]-1-methylimidazol-4-yl]carbamoyl)ethyl]carbamoyl]-1-methylpyrrol-3-yl)-1-methyl-4-(3-[[1-methyl-4-(1-methylimidazole-2-amido)pyrrol-2-yl]formamido]propanamido)imidazole-2-carboxamide] | > 500 | –
Cc1sc2c(c1C)C(c1ccc(Cl)cc1)=N[C@@H](CC(=O)Nc1cccc(OCCOCCOCCOCCOCCOCCOCCOCCOCCNC(=O)CCNC(=O)c3nc(NC(=O)CCNC(=O)c4cc(NC(=O)c5nc(NC(=O)CCNC(=O)c6cc(NC(=O)c7nccn7C)cn6C)cn5C)cn4C)cn3C)c1)c1nnc(C)n1-2 [Compound 65] | 100 to 500 | –
CCCNC(=O)CCNC(=O)c1nc(NC(=O)CCNC(=O)c2cc(NC(=O)c3nc(NC(=O)CCNC(=O)c4cc(NC(=O)c5nc(NC(=O)COCCOCCOCCOCCOCCOCCOCCOc6ccc(NC(=O)C[C@@H]7N=C(c8ccc(Cl)cc8)c8c(sc(C)c8C)-n8c(C)nnc87)cc6)cn5C)cn4C)cn3C)cn2C)cn1C [Compound 49] | < 100 | –
Cc1sc2c(c1C)C(c1ccc(Cl)cc1)=N[C@@H](CC(=O)Nc1ccc(OCCOCCOCCOCCOCCOCCOCCC(=O)NCCCN(C)CCCNC(=O)c3cc(NC(=O)c4nc(NC(=O)CCNC(=O)c5cc(NC(=O)c6nc(NC(=O)CCNC(=O)c7cc(NC(=O)c8nccn8C)cn7C)cn6C)cn5C)cn4C)cn3C)cc1)c1nnc(C)n1-2 [Compound 55] | 100 to 500 | –
CC(=O)N1c2ccc(-c3ccc(C(=O)NCCOCCOCCOCCOCCOCCOCCOCCOCCNC(=O)c4nc(NC(=O)CCNC(=O)c5cc(NC(=O)c6nc(NC(=O)CCNC(=O)c7cc(NC(=O)c8nc(NC(=O)CCNC(=O)COCCOCCOCCOCCOCCOCCOCCOCCOCCOCCOCCOCCOCCOCCOCCN)cn8C)cn7C)cn6C)cn5C)cn4C)cc3)cc2[C@H](Nc2ccc(Cl)cc2)C[C@@H]1C [Compound 89] | > 500 | –
Cc1sc2c(c1C)C(c1ccc(Cl)cc1)=N[C@@H](CC(=O)Nc1ccc(OCCOCCOCCOCCOCCOCCC(=O)NCCCN(C)CCCNC(=O)c3cc(NC(=O)c4nc(NC(=O)CCNC(=O)c5cc(NC(=O)c6nc(NC(=O)CCNC(=O)c7cc(NC(=O)c8nccn8C)cn7C)cn6C)cn5C)cn4C)cn3C)cc1)c1nnc(C)n1-2 [Compound 16] | 100 to 500 | –
CC(=O)N1c2ccc(-c3cnc(C(=O)NCCOCCOCCOCCOCCOCCC(=O)NCCCN(C)CCCNC(=O)CCNC(=O)c4nc(NC(=O)CCNC(=O)c5cc(NC(=O)c6nc(NC(=O)CCNC(=O)c7cc(NC(=O)c8nccn8C)cn7C)cn6C)cn5C)cn4C)nc3)cc2N(Cc2ccccc2CO)C[C@@H]1C1CC1 [Compound 30] | > 500 | –
Cc1sc2c(c1C)C(c1ccc(Cl)cc1)=N[C@@H](CC(=O)Nc1ccc(OCCOCCOCCOCCOCCOCCC(=O)NCCCN(CCCNC(=O)CCNC(=O)c3nc(NC(=O)CCNC(=O)c4cc(NC(=O)c5nc(NC(=O)CCNC(=O)c6cc(NC(=O)c7nccn7C)cn6C)cn5C)cn4C)cn3C)CC(F)(F)F)cc1)c1nnc(C)n1-2 [Compound 38] | – | < 100
Cc1sc2c(c1C)C(c1ccc(Cl)cc1)=N[C@@H](CC(=O)Nc1ccc(OCCOCCOCCOCCN3CCN(CCOCCOCCOCCNC(=O)CCNC(=O)c4nc(NC(=O)CCNC(=O)c5cc(NC(=O)c6nc(NC(=O)CCNC(=O)c7cc(NC(=O)c8nccn8C)cn7C)cn6C)cn5C)cn4C)CC3)cc1)c1nnc(C)n1-2 [Compound 40] | < 100 | –
Cc1noc(C)c1-c1cnc2c(-c3ccc(C(=O)NCCOCCOCCOCCOCCOCCC(=O)NCCCN(C)CCCNC(=O)CCNC(=O)c4nc(NC(=O)CCNC(=O)c5cc(NC(=O)c6nc(NC(=O)CCNC(=O)c7cc(NC(=O)c8nccn8C)cn7C)cn6C)cn5C)cn4C)cc3)cn([C@@H](C)c3ccccn3)c2c1 [Compound 8] | < 100 | –
COc1ccc2c(c1)C(c1ccc(Cl)cc1)=N[C@@H](CC(=O)Nc1ccc(OCCOCCOCCNC(=O)[C@H](CCCNC(=N)N)NC(=O)[C@H](CCCNC(=N)N)NC(=O)CCOCCOCCOCCNC(=O)CCNC(=O)c3nc(NC(=O)CCNC(=O)c4cc(NC(=O)c5nc(NC(=O)CCNC(=O)c6cc(NC(=O)c7nccn7C)cn6C)cn5C)cn4C)cn3C)cc1)c1nnc(C)n1-2 [Compound 100] | 100 to 500 | –
Cc1sc2c(c1C)C(c1ccc(Cl)cc1)=N[C@@H](CC(=O)Nc1ccc(OCCOCCOCCOCCOCCOCCOCCOCCOCCNC(=O)CCNC(=O)c3nc(NC(=O)CCNC(=O)c4cc(NC(=O)c5nc(NC(=O)CCNC(=O)c6cc(NC(=O)c7nccn7C)cn6C)cn5C)cn4C)cn3C)cc1)c1nnc(C)n1-2 [Compound 13] | < 100 | –
Cc1sc2c(c1C)C(c1ccc(Cl)cc1)=N[C@@H](CC(=O)Nc1ccc(CCCOCCOCCOCCOCCOCCC(=O)NCCCN(C)CCCNC(=O)CCNC(=O)c3nc(NC(=O)CCNC(=O)c4cc(NC(=O)c5nc(NC(=O)CCNC(=O)c6cc(NC(=O)c7nccn7C)cn6C)cn5C)cn4C)cn3C)cc1)c1nnc(C)n1-2 [Compound 60] | 100 to 500 | –
Cc1sc2c(c1C)C(c1ccc(Cl)cc1)=N[C@@H](CC(=O)Nc1ccc(OCCOCCOCCOCCOCCOCCC(=O)NCCCCCCCNC(=O)CCNC(=O)c3nc(NC(=O)CCNC(=O)c4cc(NC(=O)c5nc(NC(=O)CCNC(=O)c6cc(NC(=O)c7nccn7C)cn6C)cn5C)cn4C)cn3C)cc1)c1nnc(C)n1-2 [Compound 59] | < 100 | –
CC(=O)N1c2ccc(C3=CCN(C(=O)COCCOCCOCCOCCOCCC(=O)NCCCN(C)CCCNC(=O)CCNC(=O)c4nc(NC(=O)CCNC(=O)c5cc(NC(=O)c6nc(NC(=O)CCNC(=O)c7cc(NC(=O)c8nccn8C)cn7C)cn6C)cn5C)cn4C)CC3)cc2N(Cc2ccccc2CO)C[C@@H]1C1CC1 [Compound 29] | – | 100 to 500
CC(=O)N1c2ccc(-c3ccc(C(=O)NCCOCCOCCOCCOCCOCCC(=O)NCCCN(C)CCCNC(=O)CCNC(=O)c4nc(NC(=O)CCNC(=O)c5cc(NC(=O)c6nc(NC(=O)CCNC(=O)c7cc(NC(=O)c8nccn8C)cn7C)cn6C)cn5C)cn4C)cc3)cc2[C@H](Nc2ccc(Cl)cc2)C[C@@H]1C [Compound 31] | < 100 | –
CCCNC(=O)c1nc(NC(=O)CCNC(=O)c2cc(NC(=O)c3nc(NC(=O)CCNC(=O)c4cc(NC(=O)c5nc(NC(=O)CCNC(=O)COCCOCCOCCOCCOCCOCCOCCOc6ccc(NC(=O)C[C@@H]7N=C(c8ccc(Cl)cc8)c8c(sc(C)c8C)-n8c(C)nnc87)cc6)cn5C)cn4C)cn3C)cn2C)cn1C [Compound 51] | < 100 | –
